From paper PMC8000395, “Effective Small Molecule Antibacterials from a Novel Anti-Protein Secretion Screen” (Microorganisms, 2021)
“And” between values parts separate entries of the source, which are not always exact repeats. Identical values can stand only once. Like-named read-outs stand apart in the source and are kept apart here.

Legend:
E. coli MG1655 LolA = test system: E. coli MG1655 LolA; parameters: method as in PMID 23473681; details: read-out: IC50 against E. coli MG1655 LolA; cited from earlier work
E. coli BL21 = assay: Antimicrobial activity test (growth, OD600); format: cell-based; details: for IC50: Escherichia coli, BL21, BL21, 20 h, 37 °C, OD600, read-out: Bacterial Viability IC50, E. coli BL21
E. coli strains = assay: Antimicrobial activity test, E. coli strains (strain not given with the value); format: cell-based; details: for IC50: strain not given, read-out: Growth inhibition IC50, E. coli strains
E. coli MC4100 = assay: Antimicrobial activity test (growth, OD600); format: cell-based; details: for IC50: Escherichia coli, MC4100, 20 h, 37 °C, OD600, read-out: Bacterial Viability IC50, E. coli MC4100
[1] = test system: PhoA secretion in E. coli strain BL21 (pLysS); assay: Luminescence-based HTS assay of in vivo PhoA secretion; format: cell-based; details: for IC50: Escherichia coli, BL21, luminescence-based HTS assay, E. coli BL21, read-out: Inhibition of PhoA Secretion IC50, HTS
Gram-positive bacteria = assay: Antimicrobial activity test, summary over Gram-positive bacteria; format: cell-based; details: most Gram-positive bacteria
E. coli = details: cited from earlier work
[2] = test system: PhoA secretion in E. coli MC4100; assay: microbe, parasite or virus in culture; format: cell-based; details: for IC50: Escherichia coli, PNPP colorimetric lab-scale assay, read-out: Inhibition of PhoA Secretion IC50, Lab-Scale
B. subtilis ATCC6633 = assay: Antimicrobial activity test (growth, OD600); format: cell-based; details: for IC50: Bacillus subtilis, ATCC6633, 20 h, 37 °C, OD600, read-out: Bacterial Viability IC50, B. subtilis ATCC6633
HEK293T cells = details: human, 24 h
Experimental: Hek293T cells were harvested and diluted obtaining a cell suspension with a concentration of 200,000 cells/mL in complete growth medium (DMEM, 4.5 g/L d-glucose, pyruvate 1 mM, 0.075% bicarbonate and 10% Fetal Bovine serum). Of this cell suspension, 50 µL (10,000/well) was seeded in a 384 well culture plate (white polystyrene, tissue culture treated) and incubated at 37 °C-5% CO2 for 4 h in a moisturized incubator, which enables the cells to adhere. After the incubation, small chemical compounds were diluted in medium and 10 µL of a compound solution was added onto the cells, ending up with the required compound concentration. The cells were incubated for 24 h at 37 °C-5% CO2 in a moisturized incubator where after × µL medium was removed to equalize the liquid levels within one plate ending up with ±25 µL/well. The amount of remaining cells/well was determined with ATPlite^TM 1step (Perkin Elmer) Adenosine TriPhosphate (ATP) monitoring system, which is based on firefly luciferase.
The cytotoxicity was calculated by subtracting RLU (relative light units) obtained from the cells incubated with a compound from the RLUs obtained from cells in the presence of the vehicle.
The cytotoxic effect of a test compound was determined as:
Percent cell death = [1−((RLU determined for sample with test compound present—1) divided by (RLU determined in the presence of vehicle—1))] * 100.

[3] = test system: PhoA secretion in BW25113ΔtolC; assay: Lab-scale p-nitrophenyl PhoA secretion assay, ΔtolC strain; format: cell-based, E. coli
E. coli BW25113 = assay: Antimicrobial activity test (growth, OD600); format: cell-based; details: Escherichia coli, 20 h, 37 °C, read-out: Bacterial Viability IC50, E. coli BW25113
[4] = Turbidimetric kinetic aqueous solubility assay; format: physicochemical; details: pH 7, aqueous buffer, kinetic from dmso stock, turbidimetry 570 nm, PBS pH 7–7.2, 0.5% DMSO, 1 h; read-out: Aqueous Solubility (soluble at)
Experimental: The determination of the aqueous solubility of compounds in this assay is based on the principle of turbidimetry. Turbidimetric methods rely on the measurement of light scattering from precipitate in solution to determine the solubility. Precipitation is identified by an absorbance increase due to blockage of the light by the particles at the wavelength of 570 nm. Compounds, stored in matrix vials (Thermo Fisher) at a stock concentration of 30 mM or 10 mM in 100% Dimethyl sulfoxide (DMSO), were used to make a serial dilution (dose-response) in a 96-well v-bottom propylene plate (Greiner, 651201). Serial dilutions are made to perform the solubility assay; they were made row-wise and start with undiluted compound (30 mM or 10 mM) in the first well and were then 1 over 3 diluted further on. The serial dilutions were eight doses long and contain six compounds per plate maximal (rows B-G). Columns 1 and 12 were filled with 100% DMSO for control purposes. The dose-response plates were 200-times diluted in 300 µL Phosphate Buffered Saline (PBS; pH = 7–7.2 without Ca^2+/Mg^2+) (Gibco, 14190-144) by transferring 1.5 µL of serially diluted compound. […] Dilutions were made by diluting one 96-well plate in two 96-well, flat-bottom, polystyrene plates (Greiner, 655101). These plates were then incubated at room temperature for 1h. After 1h incubation, the plates were read on the envision (Perkin Elmer) at 570 nm.
The data of this assay is reported as “Soluble at” value for each compound. This “soluble at” value represents the concentration where the compound is still soluble and is the concentration before the first precipitated concentration. The first precipitated concentration is the concentration where the absorbance value is more than five standard deviations higher than the average background absorbance. The average background absorbance and the standard deviation are calculated on the 0.5% DMSO controls in columns 1 and 12.

[5] = test system: PhoA secretion in E. coli BW25113; assay: Lab-scale p-nitrophenyl PhoA secretion assay, BW25113; format: cell-based; details: Escherichia coli, read-out: PhoA secretion in vivo IC50, E. coli BW25113
[6] = test system: E. coli BW25113::imp-2413+; assay: Antimicrobial activity test (growth, OD600); details: Escherichia coli, BW25113, read-out: Viability IC50, BW25113::imp-2413+
E. coli BW25113ΔtolC = assay: Antimicrobial activity test (growth, OD600); details: for IC50: Escherichia coli, read-out: Viability IC50, BW25113ΔtolC, E. coli strain missing TolC; for Higher sensitivity of ΔtolC and imp-2413+ derivatives compared to BW25113: viability, Figure 5A
[7] = test system: Gram-negative and Gram-positive bacteria; assay: Antimicrobial activity test, summary over Gram-negative and Gram-positive bacteria; format: cell-based; details: 19 Gram-negative and Gram-positive species evaluated
[8] = test system: Staphylococcus aureus ATC6538P; assay: Antimicrobial activity test (growth, OD600); format: cell-based; details: read-out: Bacterial Viability (IC50)
[9] = Escherichia coli, read-out: Inhibition of PhoA Secretion IC50, Lab-Scale (ΔtolC strain), BW25113ΔtolC, p-nitrophenyl assay
[10] = E. coli BL21, MC4100 or BW25113
[11] = Escherichia coli, BW25113, BL21, E. coli BL21, MC4100 or BW25113
[12] = Staphylococcus aureus, ATC6538P

With N=C(N)SCc1ccc(Cl)c(Cl)c1 [A22, S-(3,4-dichlorobenzyl)isothiourea] as the molecule, how does the IC50 (E. coli MG1655 LolA) read?
The IC50 was 200 µM.

With [N-]=[N+]=[N-].[Na+] [CC#01, Sodium azide, reference compound] as the molecule, how does the “Bacterial Viability, E. coli BL21 (value indicates MIC not IC50)” value (E. coli BL21; NaN3 control) read?
Its value is 4000 µM.

What about the “Growth inhibition of E. coli” value (E. coli strains; at 4 mM) of the same molecule?
The value was ~ 80%.

And the “Bacterial Viability, E. coli MC4100 (value indicates MIC not IC50)” value (E. coli MC4100; NaN3 control)?
The value was 4000 µM.

What about the “Inhibition of secreted phosphatase activity” value ([1]; HTS assay conditions, sodium azide 4 mM positive control) of the same molecule?
Its value is > 90%.

What about the “Concentration required for any observable inhibition of Gram-positive bacteria” value (Gram-positive bacteria) of the same molecule?
Its value is > 100 mM.

What about the “Antibacterial concentration for E. coli” value (E. coli) of the same molecule?
Its value is 3 to 4.6 mM.

What about the “Level of secreted PhoA remaining” value ([2]; sodium azide, Figure 2A, assay format not stated) of the same molecule?
The value was ~ 17%.

What about the “Bacterial Viability, B. subtilis ATCC6633 (value indicates MIC not IC50)” value (B. subtilis ATCC6633; NaN3 control) of the same molecule?
The value was >100000 µM.

With CN(C)c1c(C(=O)O)cnc2ccccc12 [HSI#07] as the molecule, how does the IC50 (E. coli BL21) read?
Its IC50 is > 100 µM.

What about the “Toxicity of Mammalian Cells (HEK293T) LD50” value (HEK293T cells) of the same molecule?
The value was 60.2 µM.

What about the IC50 (E. coli MC4100) of the same molecule?
Its IC50 is > 100 µM.

What about the IC50 [3, 9] of the same molecule?
Its IC50 is 19.9 µM.

What about the IC50 [1] of the same molecule?
The IC50 was 19 µM.

And the IC50 (E. coli BW25113)?
The IC50 was > 100 µM.

What about the solubility at 1 h [4] of the same molecule?
The solubility at 1 h was 150 µM and 32.4 µg/mL.

And the IC50 [2]?
Its IC50 is 26.4 µM.

And the IC50 [5]?
Its IC50 is 19 µM.

What about the IC50 (B. subtilis ATCC6633) of the same molecule?
Its IC50 is > 100 µM.

Which results are given for O=C(O)c1cnc2ccc(Cl)cc2c1O [HSI#12]?
IC50 (E. coli BL21): 60 µM; Toxicity of Mammalian Cells (HEK293T) LD50 (HEK293T cells): 60.2 µM; IC50 (E. coli strains; [10]): < 65 µM and > 45 µM; IC50 (E. coli strains; [11]): 44 to 65 µM; IC50 [6]: 41.4 µM; IC50 (E. coli BW25113ΔtolC): 23.3 µM; Higher sensitivity of ΔtolC and imp-2413+ derivatives compared to BW25113 (E. coli BW25113ΔtolC): 2 to 40 times; IC50 (E. coli MC4100): > 100 µM; IC50 [3, 9]: 26 µM; IC50 [1]: 11.5 µM; IC50 (E. coli BW25113): 39.7 µM; Antibacterial character [7]: bacteriocidal; solubility at 1 h [4]: 50 µM and 11.8 µg/mL; IC50 [2]: 11.2 µM; IC50 [5]: 19 µM; IC50 (B. subtilis ATCC6633): > 100 µM

Which results are given for O=C(O)c1cnc2cc(Cl)ccc2c1O [HSI#14]?
IC50 (E. coli BL21): > 100 µM; Toxicity of Mammalian Cells (HEK293T) LD50 (HEK293T cells): 60.2 µM; IC50 (E. coli strains; [10]): < 65 µM and > 45 µM; IC50 (E. coli strains; [11]): 44 to 65 µM; IC50 [6]: 36.2 µM; IC50 (E. coli BW25113ΔtolC): 17.2 µM; Higher sensitivity of ΔtolC and imp-2413+ derivatives compared to BW25113 (E. coli BW25113ΔtolC): 2 to 40 times; IC50 (E. coli MC4100): > 100 µM; IC50 [3, 9]: 11.5 µM; IC50 ([3]; read-out: Inhibition of PhoA Secretion IC50, Lab-Scale (ΔtolC strain), BW25113ΔtolC, p-nitrophenyl assay): 11.5 µM; IC50 [1]: 13.4 µM; IC50 (E. coli BW25113): 31.3 µM; Antibacterial character [7]: bacteriocidal; solubility at 1 h [4]: 150 µM and 33.5 µg/mL; IC50 [2]: 14.6 µM; IC50 [5]: 13.5 µM; IC50 (B. subtilis ATCC6633): > 100 µM

With N=C(N)SCc1ccc(Cl)cc1 [S-(4-chlorobenzyl)isothiourea] as the molecule, how does the IC50 (E. coli MG1655 LolA) read?
Its IC50 is 150 µM.

With CC1(C)S[C@@H]2[C@H](NC(=O)[C@H](N)c3ccccc3)C(=O)N2[C@H]1C(=O)O [ampicillin, reference compound] as the molecule, how does the IC50 ([8]; Staphylococcus aureus ATC6538P) read?
The IC50 was 0.01 µM.

With CC1(C)S[C@@H]2[C@H](NC(=O)Cc3ccccc3)C(=O)N2[C@H]1C(=O)O [penicillin G, reference compound] as the molecule, how does the IC50 [8, 12] read?
Its IC50 is 0.5 µM.

For CN[C@H](CC(C)C)C(=O)N[C@H]1C(=O)N[C@@H](CC(N)=O)C(=O)N[C@H]2C(=O)N[C@H]3C(=O)N[C@H](C(=O)N[C@H](C(=O)O)c4cc(O)cc(O)c4-c4cc3ccc4O)[C@H](O)c3ccc(c(Cl)c3)Oc3cc2cc(c3O[C@@H]2O[C@H](CO)[C@@H](O)[C@H](O)[C@H]2O[C@H]2C[C@](C)(N)[C@H](O)[C@H](C)O2)Oc2ccc(cc2Cl)[C@H]1O [vancomycin, reference compound], which IC50 [8, 12] is on record?
Its IC50 is 17 µM.
